Eight cell lines from the supplement of paper PMC9663587 can be followed below.

Compound in the first test: CCOc1cc2ncc(C#N)c(Nc3ccc(OCc4ccccn4)c(Cl)c3)c2cc1NC(=O)/C=C/CN(C)C [Neratinib/HKI272]
Put plainly: increase in dead-cell fraction, 72 h; higher = more death.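 Further: breast cancer cell lines in 384-well plates, stained with Hoechst plus LIVE/DEAD far red dye and imaged, cells above an LDR intensity threshold counted dead, Hoechst-negative corpses included.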 The conditions noted are these: 0.0003162 µM.
Consider AU565, for which the “increase in dead-cell fraction” value turned out to be 0.0048.

As to BT20, the “increase in dead-cell fraction” value is -0.0021.

With HCC1428, the “increase in dead-cell fraction” value is 0.0076.

For HCC1500, the “increase in dead-cell fraction” value was determined as 0.0116.

On to MDAMB157, for which the “increase in dead-cell fraction” value was 0.0012.

Staying with this test, now noted: 0.001 µM.
In the case of 184A1, the “increase in dead-cell fraction” value is -0.0007.

With AU565, the “increase in dead-cell fraction” value came out at 0.0173.

Turning to BT20, the “increase in dead-cell fraction” value is -0.0068.

Take HCC1428: the “increase in dead-cell fraction” value came to 0.0073.

With HCC1500, the “increase in dead-cell fraction” value was -0.0067.

As to MDAMB157, the “increase in dead-cell fraction” value was 0.0066.

The test is the same for the next values; noted with them: 0.003162 µM.
Consider 184A1, for which the “increase in dead-cell fraction” value was -0.0029.

Turning to AU565, the “increase in dead-cell fraction” value stood at 0.0398.

For the cell line BT20, the “increase in dead-cell fraction” value stood at 0.001.

Regarding HCC1428, the “increase in dead-cell fraction” value came out at 0.0021.

HCC1500: the “increase in dead-cell fraction” value was found to be 0.017.

As for MDAMB157, the “increase in dead-cell fraction” value came to 0.004.

The same test, now with this note: 0.01 µM.
As to 184A1, the “increase in dead-cell fraction” value was 0.001.

On to AU565, for which the “increase in dead-cell fraction” value worked out at 0.0858.

Consider BT20, for which the “increase in dead-cell fraction” value was determined as 0.004.

Take HCC1428: the “increase in dead-cell fraction” value was -0.0004.

Consider HCC1500, for which the “increase in dead-cell fraction” value was -0.0012.

Take MDAMB157: the “increase in dead-cell fraction” value was -0.0008.

Staying with this test, now noted: 0.03162 µM.
Consider 184A1, for which the “increase in dead-cell fraction” value stood at 0.0214.

For AU565, the “increase in dead-cell fraction” value is 0.16.

For BT20, the “increase in dead-cell fraction” value came to 0.0258.

With HCC1428, the “increase in dead-cell fraction” value was 0.0008.

Regarding HCC1500, the “increase in dead-cell fraction” value is 0.0316.

In the case of MDAMB157, the “increase in dead-cell fraction” value was 0.0016.

The test is the same for the next values; noted with them: 0.1 µM.
As for 184A1, the “increase in dead-cell fraction” value came out at 0.0256.

AU565: the “increase in dead-cell fraction” value came to 0.195.

Take BT20: the “increase in dead-cell fraction” value was determined as 0.0444.

For the cell line HCC1428, the “increase in dead-cell fraction” value is 0.0018.

For HCC1500, the “increase in dead-cell fraction” value is 0.0224.

Consider MDAMB157, for which the “increase in dead-cell fraction” value is -0.0006.

Still in this test, the particulars now being: 0.3162 µM.
With 184A1, the “increase in dead-cell fraction” value was found to be 0.0311.

Turning to AU565, the “increase in dead-cell fraction” value was found to be 0.232.

BT20: the “increase in dead-cell fraction” value stood at 0.0552.

In the case of HCC1428, the “increase in dead-cell fraction” value is 0.0002.

In the case of HCC1500, the “increase in dead-cell fraction” value is 0.0504.

Take MDAMB157: the “increase in dead-cell fraction” value was determined as 0.0073.

Still in this test, the particulars now being: 1 µM.
Consider 184A1, for which the “increase in dead-cell fraction” value came to 0.028.

Consider AU565, for which the “increase in dead-cell fraction” value was found to be 0.206.

On to BT20, for which the “increase in dead-cell fraction” value came out at 0.0626.

In the case of HCC1428, the “increase in dead-cell fraction” value was 0.0203.

For the cell line HCC1500, the “increase in dead-cell fraction” value was 0.0834.

With MDAMB157, the “increase in dead-cell fraction” value is -0.0005.

Still in this test, the particulars now being: 3.162 µM.
Take 184A1: the “increase in dead-cell fraction” value is 0.0419.

As for AU565, the “increase in dead-cell fraction” value came to 0.321.

BT20: the “increase in dead-cell fraction” value was 0.169.

In the case of HCC1428, the “increase in dead-cell fraction” value is 0.217.

For HCC1500, the “increase in dead-cell fraction” value was 0.331.

Regarding MDAMB157, the “increase in dead-cell fraction” value is 0.032.

Compound in the next test: CN(C)C/C=C/C(=O)Nc1ccc(C(=O)N2CCC[C@@H](Nc3ncc(Cl)c(-c4c[nH]c5ccccc45)n3)C2)cc1 [THZ531]
The description is as above. The settings on record: 0.0001 µM.
For the cell line 184A1, the “increase in dead-cell fraction” value stood at 0.0016.

Turning to AU565, the “increase in dead-cell fraction” value was determined as 0.0002.

Consider BT20, for which the “increase in dead-cell fraction” value was -0.0017.

MCF10A (GM): the “increase in dead-cell fraction” value was determined as 0.0026.

As for PDX1206, the “increase in dead-cell fraction” value was -0.0011.

The test is the same for the next values; noted with them: 0.0003162 µM.
Regarding 184A1, the “increase in dead-cell fraction” value worked out at 0.0042.

AU565: the “increase in dead-cell fraction” value came out at 0.0023.

As to BT20, the “increase in dead-cell fraction” value was determined as 0.0012.

Take MCF10A (GM): the “increase in dead-cell fraction” value stood at 0.0015.

For the cell line PDX1206, the “increase in dead-cell fraction” value amounted to 0.0053.

Staying with this test, now noted: 0.001 µM.
For the cell line 184A1, the “increase in dead-cell fraction” value was 0.0042.

As for AU565, the “increase in dead-cell fraction” value is -0.0009.

Consider BT20, for which the “increase in dead-cell fraction” value is -0.0051.

As to MCF10A (GM), the “increase in dead-cell fraction” value was -0.0008.

Take PDX1206: the “increase in dead-cell fraction” value is -0.0065.

Still in this test, the particulars now being: 0.003162 µM.
Turning to 184A1, the “increase in dead-cell fraction” value is 0.0053.

As to AU565, the “increase in dead-cell fraction” value was determined as 0.0019.

With BT20, the “increase in dead-cell fraction” value was 0.0009.

Turning to MCF10A (GM), the “increase in dead-cell fraction” value is -0.0019.

On to PDX1206, for which the “increase in dead-cell fraction” value was -0.0032.

The same test, now with this note: 0.01 µM.
For 184A1, the “increase in dead-cell fraction” value is -0.004.

Consider AU565, for which the “increase in dead-cell fraction” value was -0.005.

Regarding BT20, the “increase in dead-cell fraction” value is -0.0031.

Consider MCF10A (GM), for which the “increase in dead-cell fraction” value was determined as 0.0006.

Consider PDX1206, for which the “increase in dead-cell fraction” value is -0.0015.

Staying with this test, now noted: 0.03162 µM.
On to 184A1, for which the “increase in dead-cell fraction” value came to 0.0024.

For AU565, the “increase in dead-cell fraction” value was determined as 0.0372.

As for BT20, the “increase in dead-cell fraction” value was -0.0002.

With MCF10A (GM), the “increase in dead-cell fraction” value was determined as 0.0017.

Take PDX1206: the “increase in dead-cell fraction” value was -0.0072.

Staying with this test, now noted: 0.1 µM.
For the cell line 184A1, the “increase in dead-cell fraction” value worked out at 0.0107.

Take AU565: the “increase in dead-cell fraction” value was found to be 0.133.

In the case of BT20, the “increase in dead-cell fraction” value is 0.003.

Take MCF10A (GM): the “increase in dead-cell fraction” value is 0.0028.

PDX1206: the “increase in dead-cell fraction” value is 0.347.

Staying with this test, now noted: 0.3162 µM.
On to 184A1, for which the “increase in dead-cell fraction” value came out at 0.0204.

For AU565, the “increase in dead-cell fraction” value came to 0.297.

Consider BT20, for which the “increase in dead-cell fraction” value is 0.0032.

As for MCF10A (GM), the “increase in dead-cell fraction” value worked out at 0.0137.

For PDX1206, the “increase in dead-cell fraction” value is 0.257.

The test is the same for the next values; noted with them: 1 µM.
For 184A1, the “increase in dead-cell fraction” value was found to be 0.447.

For AU565, the “increase in dead-cell fraction” value was 0.488.

Turning to BT20, the “increase in dead-cell fraction” value amounted to 0.0097.

For MCF10A (GM), the “increase in dead-cell fraction” value worked out at 0.62.

In the case of PDX1206, the “increase in dead-cell fraction” value was 0.344.

Compound in another test: CC(=O)c1c(C)c2cnc(Nc3ccc(N4CCNCC4)cn3)nc2n(C2CCCC2)c1=O
The description is as above. The settings on record: 0.0003162 µM.
184A1: the “increase in dead-cell fraction” value was -0.0004.

On to AU565, for which the “increase in dead-cell fraction” value is -0.0036.

BT20: the “increase in dead-cell fraction” value was -0.0052.

In the case of HCC1428, the “increase in dead-cell fraction” value stood at 0.005.

Regarding HCC1500, the “increase in dead-cell fraction” value is -0.0019.

Take MDAMB157: the “increase in dead-cell fraction” value was found to be 0.0033.

The same test, now with this note: 0.001 µM.
As for 184A1, the “increase in dead-cell fraction” value amounted to 0.0016.

As for AU565, the “increase in dead-cell fraction” value was -0.0011.

As to BT20, the “increase in dead-cell fraction” value was -0.006.

HCC1428: the “increase in dead-cell fraction” value is -0.0004.

For the cell line HCC1500, the “increase in dead-cell fraction” value turned out to be 0.0086.

Consider MDAMB157, for which the “increase in dead-cell fraction” value was determined as 0.0064.

Still in this test, the particulars now being: 0.003162 µM.
For the cell line 184A1, the “increase in dead-cell fraction” value is -0.0008.

Regarding AU565, the “increase in dead-cell fraction” value turned out to be 0.0019.

With BT20, the “increase in dead-cell fraction” value is 0.0023.

HCC1428: the “increase in dead-cell fraction” value was -0.0052.

With HCC1500, the “increase in dead-cell fraction” value was -0.0112.

With MDAMB157, the “increase in dead-cell fraction” value is 0.0023.

The test is the same for the next values; noted with them: 0.01 µM.
Regarding 184A1, the “increase in dead-cell fraction” value stood at 0.0001.

As for AU565, the “increase in dead-cell fraction” value is -0.0007.

Take BT20: the “increase in dead-cell fraction” value worked out at 0.0093.

With HCC1428, the “increase in dead-cell fraction” value was found to be 0.0068.

As for HCC1500, the “increase in dead-cell fraction” value was found to be 0.0091.

As to MDAMB157, the “increase in dead-cell fraction” value is 0.0015.

Staying with this test, now noted: 0.03162 µM.
As for 184A1, the “increase in dead-cell fraction” value amounted to 0.0086.

Regarding AU565, the “increase in dead-cell fraction” value stood at 0.008.

On to BT20, for which the “increase in dead-cell fraction” value is 0.0193.

As to HCC1428, the “increase in dead-cell fraction” value was 0.0017.

As to HCC1500, the “increase in dead-cell fraction” value stood at 0.0038.

As to MDAMB157, the “increase in dead-cell fraction” value was 0.0013.

The test is the same for the next values; noted with them: 0.1 µM.
Consider 184A1, for which the “increase in dead-cell fraction” value is 0.0183.

AU565: the “increase in dead-cell fraction” value was 0.0139.

For the cell line BT20, the “increase in dead-cell fraction” value was found to be 0.0353.

Take HCC1428: the “increase in dead-cell fraction” value is 0.0007.

In the case of HCC1500, the “increase in dead-cell fraction” value amounted to 0.019.

For the cell line MDAMB157, the “increase in dead-cell fraction” value worked out at 0.0006.

The same test, now with this note: 0.3162 µM.
Take 184A1: the “increase in dead-cell fraction” value was 0.0224.

Regarding AU565, the “increase in dead-cell fraction” value worked out at 0.0209.

BT20: the “increase in dead-cell fraction” value was 0.0479.

In the case of HCC1428, the “increase in dead-cell fraction” value turned out to be 0.0117.

On to HCC1500, for which the “increase in dead-cell fraction” value stood at 0.0086.

Turning to MDAMB157, the “increase in dead-cell fraction” value is -0.002.

Staying with this test, now noted: 1 µM.
For 184A1, the “increase in dead-cell fraction” value stood at 0.0414.

In the case of AU565, the “increase in dead-cell fraction” value worked out at 0.0255.

Turning to BT20, the “increase in dead-cell fraction” value came to 0.0439.

As to HCC1428, the “increase in dead-cell fraction” value worked out at 0.0083.

Regarding HCC1500, the “increase in dead-cell fraction” value was 0.009.

For MDAMB157, the “increase in dead-cell fraction” value is -0.0042.
